Legend:
[1] = test system: LPS from E. coli EH100; experiment: BODIPY-Cadaverine LPS displacement assay; assay type: binding; settings: for LPS Displacement (EC50, μg/mL): BODIPY-cadaverine displacement from E. coli EH100 LPS
Method: BODIPY-Cadaverine LPS displacement assay. The BODIPY-cadaverine LPS displacement assay was performed as previously described (Wood et al. 2004. Combinatorial Chemistry & High Throughput Screening, 7: 239-49; Klobucar et al. 2021. ACS Chemical Biology, 16: 929-42). A solution of BODIPY-cadaverine (2.25 μM) and LPS from E. coli EH100 (5.25 μM) in Tris-HCl buffer (50 mM, pH 7.4) was prepared. 0.5 μL of compound and 49.5 μL of the Tris-HCl buffer with BODIPY-cadaverine and LPS solution were added to a Corning nonbinding surface black 384-well polystyrene plate. Fluorescence intensity was measured immediately with an excitation wavelength of 580 nm and an emission wavelength of 620 nm. EC50 values were calculated using a three-parameter logistic curve in GraphPad Prism 9.

[2] = test system: A. baumannii (ATCC 17978); experiment: Checkerboard potentiation assay with novobiocin; assay type: cell-based; settings: with novobiocin
Method: (§1) Bacterial strains and culture conditions. The following bacterial strains were used within this study; A. baumannii (ATCC 17978), K. pneumoniae (ATCC 43816), K. pneumoniae (ATCC 43816, expressing pGDP2:mcr-1), P. aeruginosa (PA01). Bacterial growth was in cation-adjusted Mueller-Hinton broth (MHB) at 37° C., and inoculum was prepared according to CLSI protocol (CLSI 2015).
(§2) Potentiation assays. Checkerboard analyses were conducted with each drug serially diluted at eight concentrations to create an 8×8 matrix. At least two biological replicates were done for each combination, and the means were used for FIC calculation. The FIC for each drug was calculated by dividing the concentration of the drug in the presence of codrug in a combination for a well showing <10% growth by the MIC for that drug alone. The FIC index (FICI) is the sum of the two FICs, with an FIC index≤0.5 deemed synergistic.

[3] = test system: K. pneumoniae (ATCC 43816); experiment: Checkerboard potentiation assay with novobiocin; assay type: cell-based
Method: as §1, §2
(§3) To probe the spectrum of activity of the present analogs beyond A. baumannii, their interactions with novobiocin were assessed against the high-priority Gram-negative pathogens Klebsiella pneumoniae and P. aeruginosa (FIG. 5).

[4] = test system: P. aeruginosa (PA01); experiment: Checkerboard potentiation assay with novobiocin; assay type: cell-based
Method: as §1, §2, §3

[5] = HEK293 cytotoxicity assay (Cell Titer Glo); assay type: cell-based; settings: human, HEK293T Cytotoxicity (IC50, μg/mL)
Method: Cytotoxicity Assays. HEK293 (ATCC CRL 1573) cells were left to adhere for 18 h at 7.5×10^3 cells per well in DMEM containing 10% FBS and 2 mM L-glutamine. Compound was added directly into the well. After 48 h of treatment Promega Cell Titer Glo 2.0® was added, shaken for 10 min, and luminescence read (Biotek Neo). AC50 values were calculated using a four-parameter logistic curve in GraphPad Prism 9.
Focusing on only the analogs that retained synergistic activity with novobiocin (FICI≤0.5), half-maximal activity (AC50) values were calculated against HEK293 cells using a CellTiter-Glo® based assay to approximate cell viability. […] Specifically, the FICI value for both P35 and P36 was 0.094 against A. baumannii, while their AC50 values were 235 μg/mL and 200 μg/mL, respectively.

[6] = test system: A. baumannii ATCC 17978; experiment: Systemic A. baumannii murine infection model; assay type: in vivo, mouse
Method: Mouse infection models. Animal experiments were conducted according to guidelines set by the Canadian Council on Animal Care using protocols approved by the Animal Review Ethics Board at McMaster University under Animal Use Protocol #20-12-43. Before infection, mice were relocated at random from a housing cage to treatment or control cages. No animals were excluded from analyses, and blinding was considered unnecessary. Seven- to nine-week-old female C57BL/6 mice (Charles River) were infected intraperitoneally with ˜2×10^6 CFU of A. baumannii ATCC 17978, with 5% porcine mucin (Sigma-Aldrich). Infections were allowed to establish for 2 h, and treatments were administered intraperitoneally. For the survival study, the clinical endpoint was determined using a five-point body condition score analyzing weight loss, decrease in body temperature, respiratory distress, hampered mobility and hunched posture. Experimental endpoint was defined as five days post-infection for mice not reaching clinical endpoint. For CFU/mL enumeration, animals were infected as described above and euthanized 6 h post-infection, and blood was collected into sterile 2 ml heparinized tubes (BD Scientific) serially diluted in PBS and plated onto solid LB. Plates were incubated overnight at 37° C., and colonies were quantified to determine bacterial load.
This was directly compared to the activity of P35 and P36 in this model (all administered at 10 mg/kg) in combination with novobiocin (50 mg/kg).
For this experiment the same A. baumannii infection model was used, however, endpoint was defined as 6 h post-infection, at which point blood was collected for CFU/mL enumeration (FIG. 2b).

| Molecule | LPS Displacement (EC50, μg/mL) [1] | FICI AB [2] | FICI KP [3] | FICI PA [4] | IC50 at 48 h [5] | Increase of LPS binding affinity compared to pentamidine ([1]; BODIPY displacement EC50 relative to pentamidine) | Animals rescued in combination with novobiocin ([6]; 10 mg/kg analog + 50 mg/kg novobiocin i.p. 2 h post-infection, endpoint 5 days) | Impact on blood CFU/mL, treatment alone ([6]; alone, 6 h post-infection, compared to control-treated animals) |
| --- | --- | --- | --- | --- | --- | --- | --- | --- |
| N=C(N)c1ccc(OCCC2(CCOc3ccc(C(=N)N)cc3)CCCC2)cc1 [Analog P02] | 77.29 µg/mL | 0.156 | 0.187 | 0.281 | 15.3 µg/mL |  |  |  |
| N=C(N)c1ccc(OCCC2(CCOc3ccc(C(=N)N)cc3)CCCCC2)cc1 [Analog P03] |  | 0.094 | 0.078 | 0.625 |  |  |  |  |
| N=C(N)c1ccc(OCCC2(CCOc3ccc(C(=N)N)cc3)CCCCCC2)cc1 [Analog P04] | 15.97 µg/mL | 0.14 | 0.25 | 0.531 | 37.1 µg/mL |  |  |  |
| CC(C)(CCOc1ccc(C(=N)N)cc1)CCOc1ccc(C(=N)N)cc1 [Analog P06] | 62.47 µg/mL | 0.187 | 0.156 | 0.375 | 69.1 µg/mL |  |  |  |
| CCC(CC)(CCOc1ccc(C(=N)N)cc1)CCOc1ccc(C(=N)N)cc1 [Analog P07] | 19.04 µg/mL | 0.0625 | 0.156 | 1 | 31.2 µg/mL | > 10 fold |  |  |
| N=C(N)c1ccc(OC2CCC(Oc3ccc(C(=N)N)cc3)CC2)cc1 (centres unmarked) [Analog P08] | 288.7 µg/mL | 0.375 | 0.25 | 2 | > 160 µg/mL |  |  |  |
| c1c[nH]c(-c2ccc(OCCCCCOc3ccc(-c4ncc[nH]4)cc3)cc2)n1 [Analog P11] |  |  | 2 | 2 | 104 µg/mL |  |  |  |
| N=C(N)c1ccc(OCCCCCOc2ccc(C(=N)N)cc2F)c(F)c1 [Analog P12] | 63.21 µg/mL | 0.187 | 0.187 | 0.5 | 95.5 µg/mL |  |  |  |
| C[C@@H](CCC[C@H](C)Oc1ccc(C(=N)N)cc1)Oc1ccc(C(=N)N)cc1 [Analog P15A] | 118.2 µg/mL |  | 0.25 | 0.5 | 106 µg/mL |  |  |  |
| C[C@H](CCC[C@H](C)Oc1ccc(C(=N)N)cc1)Oc1ccc(C(=N)N)cc1 [Analog P15B] | 132.5 µg/mL |  | 0.187 | 0.187 | 239 µg/mL |  |  |  |
| C[C@H](CCC[C@@H](C)Oc1ccc(C(=N)N)cc1)Oc1ccc(C(=N)N)cc1 [Analog P15C] | 148.8 µg/mL |  | 0.25 | 0.375 |  |  |  |  |
| CC(CCCC(C)Oc1ccc(C(=N)N)cc1)Oc1ccc(C(=N)N)cc1 (centres unmarked) [Analog P15] |  |  | 0.25 | 0.281 |  |  |  |  |
| N=C(N)c1ccc(OCCCCCOc2ccc(C(=N)N)nc2)cn1 [Analog P16] | 60.19 µg/mL | 0.25 | 0.375 | 1 | 183 µg/mL |  |  |  |
| N=C(NC1CCCCC1)c1ccc(OCCCCCOc2ccc(C(=N)NC3CCCCC3)nc2)cn1 [Analog P18] | 218.8 µg/mL |  | 1 | 2 | 22.2 µg/mL |  |  |  |
| N/C(=N\O)c1ccc(OCCCCCOc2ccc(/C(N)=N/O)nc2)cn1 [Analog P19] |  |  | 2 | 2 | 135 µg/mL |  |  |  |
| N=C(N)c1ccc(OCCCCCOc2ccc(C(=N)N)cn2)nc1 [Analog P20] |  | 0.25 | 0.25 | 2 | > 320 µg/mL |  |  |  |

| Molecule | LPS Displacement (EC50, μg/mL) [1] | FICI AB [2] | FICI KP [3] | FICI PA [4] | IC50 at 48 h [5] | Increase of LPS binding affinity compared to pentamidine ([1]; BODIPY displacement EC50 relative to pentamidine) | Animals rescued in combination with novobiocin ([6]; 10 mg/kg analog + 50 mg/kg novobiocin i.p. 2 h post-infection, endpoint 5 days) | Impact on blood CFU/mL, treatment alone ([6]; alone, 6 h post-infection, compared to control-treated animals) |
| --- | --- | --- | --- | --- | --- | --- | --- | --- |
| N=C(N)c1ccc(OCCC2CCCCC2CCOc2ccc(C(=N)N)cc2)cc1 (centres unmarked) [Analog P21] | 13.08 µg/mL | 0.094 | 0.046 | 1 | 19.2 µg/mL |  |  |  |
| C[C@@H](CCCOc1ccc(C(=N)N)cc1)COc1ccc(C(=N)N)cc1 [Analog P22R] | 26.02 µg/mL |  | 0.25 | 0.3125 | 94.2 µg/mL |  |  |  |
| C[C@H](CCCOc1ccc(C(=N)N)cc1)COc1ccc(C(=N)N)cc1 [Analog P22S] | 59.08 µg/mL |  | 0.25 | 0.375 | 53.7 µg/mL |  |  |  |
| N=C(N)c1ccc(OCCC[C@@H]2CCCN(c3ccc(C(=N)N)cc3)C2)cc1 [Analog P24A] | 91.74 µg/mL |  | 0.187 | 0.375 | 77.9 µg/mL |  |  |  |
| N=C(N)c1ccc(OCCC[C@H]2CCCN(c3ccc(C(=N)N)cc3)C2)cc1 [Analog P24B] | 149.5 µg/mL |  | 0.187 | 0.75 | 57.9 µg/mL |  |  |  |
| N=C(N)c1ccc(OCCC2(CCOc3ccc(C(=N)N)cc3)CCC(C(=O)O)CC2)cc1 (centres unmarked) [Analog P30] | 119.4 µg/mL | 0.625 | 1 | 2 | 1100 µg/mL |  |  |  |
| N=C(N)c1ccc(OCCNCCOc2ccc(C(=N)N)cc2)cc1 [Analog P31A] | 497.8 µg/mL | 0.5 |  | 2 | > 640 µg/mL |  |  |  |
| N=C(N)c1ccc(OCC2(COc3ccc(C(=N)N)cc3)CCCCC2)cc1 [Analog P31] | 43.82 µg/mL | 0.094 | 0.0937 | 0.187 | 73.5 µg/mL |  |  |  |
| N=C(N)c1ccc(OCCN(CCOc2ccc(C(=N)N)cc2)CCC(F)(F)F)cc1 [Analog P34] | 134.3 µg/mL | 0.25 |  | 0.375 | > 80 µg/mL |  |  |  |
| N=C(N)c1ccc(OCCN(CCOc2ccc(C(=N)N)cc2)Cc2ccccc2)cc1 [Analog P36] | 165.9 µg/mL | 0.094 |  | 0.5 | 200 µg/mL |  | 80% |  |
| N=C(N)c1ccc(OCCC(N)CCOc2ccc(C(=N)N)cc2)cc1 (centres unmarked) [Analog P37] |  | 0.75 |  | 2 |  |  |  |  |
| N=C(N)c1ccc(OCCC(CCOc2ccc(C(=N)N)cc2)N2CCCC2)cc1 (centres unmarked) [Analog P38] | 202 µg/mL | 0.75 |  | 2 | > 80 µg/mL |  |  |  |
| N=C(N)c1ccc(OCCC2(CCOc3ccc(C(=N)N)cn3)CCCC2)nc1 [Analog P39] | 48.34 µg/mL | 0.094 |  | 0.3125 | 53.7 µg/mL |  |  |  |
| CO[C@@H]1[C@@H](OC(N)=O)[C@@H](O)[C@H](Oc2ccc3c(O)c(NC(=O)c4ccc(O)c(CC=C(C)C)c4)c(=O)oc3c2C)OC1(C)C [novobiocin, reference compound] |  |  |  |  |  |  |  | no significant impact |
| colistin [reference compound] | 7.81 µg/mL |  |  |  |  |  |  |  |
